Data from patent US9000025B2, “Autotaxin inhibitors and uses thereof” (Amira Pharmaceuticals, Inc., priority 2010, dated 2015).

What follows are compounds tested against T1, autotaxin (ATX) (Homo sapiens, UniProt Q13822) (assay: Native Autotaxin Choline Release Assay). Conditions: autotaxin in conditioned medium from human melanoma cell line; choline released from LPC; read-out: MDA-MB-435S Assay IC50.
T1 construct: conditioned medium from the human melanoma cell line, MDA-MB-4355, which endogenously expresses autotaxin; host or cells: MDA-MB-435S human melanoma cells; serum-free conditioned medium, concentrated 20-fold
Assay type: biochemical
Outline: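 Native ATX from conditioned serum-free, phenol-red-free DMEM of confluent cells cultured 48 h; LPC as substrate. Released choline detected with choline oxidase/peroxidase/4-aminoantipyrine colour mix in 50 mM Tris pH 8, 10 min at 37 °C, absorbance 555 nm; choline quantified against standard curve, equated to LPA formed.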

IC50, < 300 nM:
CCCn1cc(-n2c(C)c(Sc3ccc(OC)c(C(=O)O)c3)c3ccc(Cl)c(F)c32)cn1 [Compound 4-10, 5-[6-Chloro-7-fluoro-2-methyl-1-(1-propyl-1H-pyrazol-4-yl)-1H-indol-3-ylsulfanyl]-2-methoxy-benzoic acid]
CCn1cc(-n2c(C)c(Sc3cccc(C(=O)O)c3F)c3c(F)cc(Cl)cc32)cn1 [Compound 4-11, 3-[6-Chloro-1-(1-ethyl-1H-pyrazol-4-yl)-4-fluoro-2-methyl-1H-indol-3-ylsulfanyl]-2-fluoro-benzoic acid]
CCCn1cc(-n2c(C)c(Sc3cccc(CC(=O)O)c3F)c3ccc(Cl)c(F)c32)cn1 [Compound 4-12, {3-[6-Chloro-7-fluoro-2-methyl-1-(1-propyl-1H-pyrazol-4-yl)-1H-indol-3-ylsulfanyl]-2-fluoro-phenyl}-acetic acid]
CCCn1cc(-n2c(C)c(Sc3ccc(C)c(C(=O)O)c3)c3ccc(Cl)c(F)c32)cn1 [Compound 4-13, 5-[6-Chloro-1-(1-propyl-1H-pyrazol-4-yl)-7-fluoro-2-methyl-1H-indol-3-ylsulfanyl]-2-methyl-benzoic acid]
CCCn1cc(-n2c(C)c(Sc3ccc(C(F)(F)F)c(CC(=O)O)c3)c3ccc(Cl)c(F)c32)cn1 [Compound 4-14, {5-[6-Chloro-7-fluoro-2-methyl-1-(1-propyl-1H-pyrazol-4-yl)-1H-indol-3-ylsulfanyl]-2-trifluoromethyl-phenyl}-acetic acid]
CCn1cc(-n2c(C)c(Sc3cccc(CC(=O)O)c3F)c3ccc(Cl)c(F)c32)cn1 [Compound 4-15, {3-[6-Chloro-1-(1-ethyl-1H-pyrazol-4-yl)-7-fluoro-2-methyl-1H-indol-3-ylsulfanyl]-2-fluoro-phenyl}-acetic acid]
